# Results: US20240352068A1, “VIMENTIN TARGETED PEPTOIDS FOR EARLY DIAGNOSIS AND TREATMENT OF CANCER” (UNIVERSITY OF HOUSTON SYSTEM, priority 2021, published 2024)
# Numbered stars: 1 amine (or outer) side, 2 acyl side, 3 side chain; on linkers, the order of the positions; unused ones are H or OH. Bridge positions count the residues as written; N and C are the ends. Square brackets hold non-standard residues; d marks the D form. Peptide text beside a SMILES is read from it. I, II: the chains in the order shown. X1 = O=C(c1ccccc1)c1cccc(N(CC(=O)[*:2])[*:1])c1; N(4-BzPh)Gly = O=C(O)CNc1ccc(C(=O)c2ccccc2)cc1; Gly(N-piperonyl) = O=C(O)CNCc1ccc2c(c1)OCO2; Nleu = CC(C)CNCC(=O)O; Nlys = NCCCCNCC(=O)O; Nme = COCCNCC(=O)O; Sar = CNCC(=O)O
# Legend:
# [1] = test system: HBEC3^p53,KRAS,cMYC cells; experiment: on-bead cell binding, transformed cells; type: cell-based, human; conditions: JM3A on tentagel beads, red stained cells, separately and as mixture
# From the text: (§1) The compound JM3A was resynthesized on tentagel beads and equilibrated with HBEC3^p53,KRAS,cMYC (red stained) cells and HBEC3-KT (green stained) cells separately and also as a mixture.
# HBEC3-KT cells = experiment: on-bead cell binding, normal cells; type: cell-based, human; conditions: JM3A on tentagel beads, green stained cells, separately and as mixture
# From the text: as §1
# [2] = biological target: Vimentin protein (His-tag) (Homo sapiens, UniProt P08670); experiment: on bead protein binding assay; conditions: anti-His Alexa 647 detection
# Sequence of Vimentin protein (His-tag) (P08670 whole entry): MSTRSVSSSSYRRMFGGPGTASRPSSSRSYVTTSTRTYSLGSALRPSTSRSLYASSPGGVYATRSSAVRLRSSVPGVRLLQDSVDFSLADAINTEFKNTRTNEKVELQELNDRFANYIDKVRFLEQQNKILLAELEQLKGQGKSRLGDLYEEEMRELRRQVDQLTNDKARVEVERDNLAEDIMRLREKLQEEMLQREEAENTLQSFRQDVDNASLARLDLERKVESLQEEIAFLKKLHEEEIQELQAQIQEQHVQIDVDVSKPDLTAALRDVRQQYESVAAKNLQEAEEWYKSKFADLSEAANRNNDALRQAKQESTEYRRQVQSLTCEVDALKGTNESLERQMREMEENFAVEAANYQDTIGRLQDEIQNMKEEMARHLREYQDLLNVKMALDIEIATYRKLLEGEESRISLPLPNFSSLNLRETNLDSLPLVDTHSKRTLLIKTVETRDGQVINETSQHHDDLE
# Experimental: To reconfirm the JM3A-vimentin interaction, an on bead protein binding assay was performed. Vimentin protein (His-tag) was screened with compound JM3A (on tentagel beads) and visualized using a secondary antibody (Anti-His Alexa 647) (FIG. 9A).
# [3] = biological target: T1, commercially available vimentin protein (Homo sapiens, UniProt P08670); experiment: magnetic-bead pulldown and western blot with commercially available vimentin protein; type: binding; conditions: western blot
# T1 construct: purchased
# T1 sequence (P08670 whole entry): as above
# From the text: To further confirm of JM3A specificity, the western blot assay was repeated using commercially available vimentin protein (FIG. 10B). […] This JM3A bound band disappeared when this binding was competed (blocked) with 10× free JM3A, and 5× free vimentin antibody. […] The results were further confirmed by running pure protein as reference band and JM3A transformed cells pulldown proteins.
# [4] = test system: vimentin expressing cells; experiment: magnetic bead pulldown of cells with quantification; type: cell-based, human; conditions: HBEC3^p53,KRAS,cMYC vs HBEC3-KT; NAD(P)H, dityrosine, MTS readout
# Experimental: JM3A can be utilized as an early cancer biomarker to develop simple diagnostic tools such as reading the cells auto fluorescence markers or quantifying the cells using MTS assay. Applicant performed the pulldown assay using JM3A to HBEC3-KT and HBEC3^p53,KRAS,cMYC cells. The Biotin-JM3A compound was mounted on streptavidin coated magnetic beads and 1 million cells (HBEC3-KT and HBEC3^p53,KRAS,cMYC cells each) were incubated for 1 hour. Next, bound cells were pulled using magnet.
# The difference of number of cells pulled down were quantified for NAD (P) H (FIG. 11A) and Dityrosine (FIG. 11B) expression. Also to the pulldown cells MTS reagent was added and number of cells were quantified (FIG. 11C).
# vimentin [5] = biological target: T2, vimentin (Homo sapiens, UniProt P08670); experiment: cross-linking, magnetic-bead pulldown and western blot on cells; type: binding; design: from tissue; host or cells: human early cancer tissue and normal tissue cross-sections; conditions: western blot
# T2 sequence (P08670 whole entry): as above
# Experimental: For pulldown assay, the JM3A compound was synthesized with Biotin on C-terminal and benzophenone on its N-terminal (FIG. 7A). The compound was first mounted on streptavidin magnetic beads, followed by incubation of the cells HBEC3^p53,KRAS,cMYC and HBEC3-KT for 1 hour. Bound cells were separated using magnetic beads and cross-linked using UV. The cells were then lysed, and the proteins were separated by electrophoresis and visualized by silver staining (FIG. 7B). The unique band at around 60 kDa in the JM3A-bound sample, which was not present in whole cell lysis of HBEC3-KT cells or in the Control-PC462 compound pulldown, was analyzed by standard proteomics technique.
# To reconfirm the JM3A-vimentin interaction, western blot analysis of samples from cross-linking and magnetic-bead pulldown assay with normal cells (HBEC3-KT) and transformed cells (HBEC3^p53,KRAS,cMYC) were performed (FIG. 10A). Pulldown assay was performed on normal and transformed cells using JM3A and control PC462. All the pulldown fractions were run on western-blot and compared with whole-cell lysis of HBEC3-KT and HBEC3^p53,KRAS,cMYC cells.
# vimentin [6] = biological target: T2, vimentin; experiment: immunohistochemical detection of vimentin in tissues; design: from tissue; host or cells: human early cancer tissue and normal tissue cross-sections; conditions: IHC
# Experimental: In a more clinically applicable set up, Applicant detected vimentin expression using JM3A in early cancer tissues from human samples using immunohistochemistry (IHC) experiments. Biotin-JM3A was incubated with those tumor tissue cross-sections compared to normal tissues for 1 hour and visualized by streptavidin Q-dots 655 under fluorescent microscope using Long-pass filter (FIG. 11D).
# H1299 cells [7] = experiment: wound healing (cell migration) assay; type: cell-based; design: inhibition of cell migration: dose or concentration left out as unconfirmed
# Experimental: FIGS. 22A-22B provide data related to the characterization of L2 (D-ala), JM3A-BPD1, and JM3A-BP. […] H1299 cells were cultured to form a monolayer in 24-well plate. A scratch was made and wells were treated with L2 (D-ala), JM3A-BPD1. […]
# Since vimentin has been identified as an important biomarker of mesenchymal cells during the epithelial-mesenchymal transition (EMT) process. The EMT process can endow epithelial cells with stemness as well as invasion and migration properties. Therefore, Applicant would like to investigate how L2 (D-ala) targeting vimentin can impact cancer stem cells activity. The wound-healing assay indicates the mobility/motility of cells, which is a hallmark measurement of cancer stem cells. The L2 (D-ala), JM3A-BPD1, JM3A-BP, and control compound were used to study the effects on cell migration via wound healing assay. […] Both JM3A-BP monomer and control compounds had no effect on cell migration.
# H460 cells = experiment: colony formation assay; type: cell-based; conditions: for colony formation: 7 days, at 20 μM
# Experimental: FIGS. 23A-23B provide additional data related to the characterization of L2 (D-ala), JM3A-BPD1, and JM3A-BP. […] FIG. 23B provides a quantification of the colonies after a 7-day incubation treatment.
# Colony formation is a standard assay to assess the activity of cancer stem cells. When cancer cells are seeded in a low number, normal cancer cells die due to the loss of cell-cell communications while cancer stem cells can survive and form colonies in isolation. Applicant performed colony formation assay on H460 cells to study how L2 (D-ala) can affect cancer stem cells activity. The H460 cells were seeded and treated with L2 (D-ala), JM3A-BPD1, JM3A-BP, and control compounds from day 1. After 7 days of incubation, colonies were carefully counted and plotted.
# vimentin [8] = biological target: T2, vimentin; experiment: ELISA-like binding assay to vimentin
# Experimental: To identify minimum pharmacophore of JM3A (the most important residues directly needed for protein binding), an alanine/sarcosine scan was done.
# Next, Applicant compared binding activity between L2 (D-ala) and JM3ABPD1 by employing ELISA-like binding assay in a concentration between 10 nM to 10 μM.
# H1299 cells [9] = type: cell-based
# Experimental: Next, Applicant evaluated the anti-proliferative activity of these peptoid dimers via standard MTS assays on non-small cell lung cancer (NSCLC) H1299 cells, which have high vimentin expression.
# After 18 hours, the activity reached the maximum (IC50˜6 μM) (FIG. 21C).
# H460 = experiment: MTS assay on H460 cells; type: cell-based; conditions: H460, vimentin high expression
# From the text: (§2) In order to investigate the broader applicability of vimentin targeting in NSCLC cells, Applicant performed the same MTS studies on different lung cancer models with various vimentin expressions. These cell lines included H460 (Carcinoma, large cell lung cancer), H2009 (Adenocarcinoma, Stage 4), H358 (Bronchioalveolar Carcinoma, NSCLC), H2122 (Adenocarcinoma, NSCLC), and normal bronchial epithelial HBEC3KT cells.
# H2009 = experiment: MTS assay on H2009 cells; type: cell-based; conditions: H2009, vimentin moderate expression
# From the text: as §2
# H358 = experiment: MTS assay on H358 cells; type: cell-based; conditions: H358, vimentin moderate expression
# From the text: as §2
# H2122 = experiment: MTS assay on H2122 cells; type: cell-based; conditions: H2122, vimentin low expression
# From the text: as §2
# [10] = test system: normal bronchial epithelial HBEC3KT cells; experiment: MTS assay on normal bronchial epithelial cells; type: cell-based, human
# From the text: as §2
smiles,measurement,setting,value
COCCN(CC(=O)NC(CCCCN)C(=O)NC(CCSC)C(N)=O)C(=O)CN(Cc1ccc2c(c1)OCO2)C(=O)CN(CC(C)C)C(=O)CN(CCCCN)C(=O)CN(CCCCN)C(=O)CNCC(C)C (stereo not shown) [JM3A] (H-[Nleu][Nlys][Nlys][Nleu][Gly(N-piperonyl)][Nme]KM-NH2; configuration not given here),binding of beads to cells,[1],bound only to red stained cells
same,binding of beads to cells,HBEC3-KT cells,not to green stained cells
same,binding of histidine-tagged vimentin to on-bead compound,[2],showed binding
same,interaction with and pulldown of vimentin protein,[3],strong interaction and pulldown of vimentin protein
same,pulldown of vimentin expressing cells,[4],can be pulled down
same,pulldown of vimentin protein,vimentin [5]; normal cells (HBEC3-KT),not in normal cells
same,pulldown of vimentin protein,"vimentin [5]; transformed cells (HBEC3^p53,KRAS,cMYC)",pulldown only with JM3A in transformed cells
same,detection of vimentin overexpression,vimentin [6]; early cancer tissues,present
same,detection of vimentin overexpression,vimentin [6]; normal tissues,absent
COCCN(CC(=O)NC(CCCCN)C(=O)NC(CCSC)C(=O)NCCCCC(NC(=O)C(CCSC)NC(=O)C(CCCCN)NC(=O)CN(CCOC)C(=O)CN(Cc1ccc2c(c1)OCO2)C(=O)CN(CC(C)C)C(=O)CN(CCCCN)C(=O)CN(CCCCN)C(=O)CN(CC(C)C)C(=O)CNc1ccc(C(=O)c2ccccc2)cc1)C(N)=O)C(=O)CN(Cc1ccc2c(c1)OCO2)C(=O)CN(CC(C)C)C(=O)CN(CCCCN)C(=O)CN(CCCCN)C(=O)CN(CC(C)C)C(=O)CNc1ccc(C(=O)c2ccccc2)cc1 (stereo not shown) [JM3A-BPD1] (I: H-[N(4-BzPh)Gly][Nleu][Nlys][Nlys][Nleu][Gly(N-piperonyl)][Nme]KMK-NH2 / II: H-[N(4-BzPh)Gly][Nleu][Nlys][Nlys][Nleu][Gly(N-piperonyl)][Nme]KM; amide I:10-II:C; configuration not given here),inhibition of cell migration,H1299 cells [7],moderately inhibit
same,colony formation,H460 cells,some colony disruption
COCCN(CC(=O)N[C@@H](CCCCN)C(=O)N[C@H](C)C(=O)NCC(=O)NCCCC[C@H](NC(=O)CNC(=O)[C@@H](C)NC(=O)[C@H](CCCCN)NC(=O)CN(CCOC)C(=O)CN(Cc1ccc2c(c1)OCO2)C(=O)CN(CC(C)C)C(=O)CN(CCCCN)C(=O)CN(CCCCN)C(=O)CN(CC(C)C)C(=O)CNc1cccc(C(=O)c2ccccc2)c1)C(N)=O)C(=O)CN(Cc1ccc2c(c1)OCO2)C(=O)CN(CC(C)C)C(=O)CN(CCCCN)C(=O)CN(CCCCN)C(=O)CN(CC(C)C)C(=O)CNc1ccc(C(=O)c2ccccc2)cc1 [L2 (D-ala)] (I: H-[X1][Nleu][Nlys][Nlys][Nleu][Gly(N-piperonyl)][Nme]K[dA]GK-NH2 / II: H-[N(4-BzPh)Gly][Nleu][Nlys][Nlys][Nleu][Gly(N-piperonyl)][Nme]K[dA]G; amide I:11-II:C; N-terminus and C-terminus assumed),Kd improvement relative to JM3A-BPD1,vimentin [8]; 10 nM to 10 μM,approximately 10 times
same,effect of extension of treatment time on proliferation,"H1299 cells [9]; H1299 cells, after 18 hours",no significant impact
same,anti-proliferation potency (in words),"H1299 cells [9]; H1299 cells, treatment 6 hours",improvement in potency
same,anti-proliferation activity (in words),H460,best activity
same,anti-proliferation activity (in words),H2009,medium activity
same,anti-proliferation activity (in words),H358,medium activity
same,anti-proliferation activity (in words),H2122,lowest activity
same,anti-proliferation activity (in words),[10],inactivity
same,concentration from which cell migration is inhibited,H1299 cells [7],3 µM
same,inhibition of cell migration,H1299 cells [7],significantly inhibit
same,concentration from which colony formation is disrupted,H460 cells; 7 days of incubation,1 µM
same,colony formation,H460 cells,inhibit all colonies
"COCCN(CC(=O)NC(CCCCN)C(=O)NC(CCSC)C(N)=O)C(=O)CN(C)C(=O)CN(CC(C)C)C(=O)CN(CCCCN)C(=O)CN(CCCCN)C(=O)CN(C)C(=O)CNc1ccc(C(=O)c2ccccc2)cc1 (stereo not shown) [JM3A-4,8-BP] (H-[N(4-BzPh)Gly][Sar][Nlys][Nlys][Nleu][Sar][Nme]KM-NH2; configuration not given here)",binding to vimentin (in words),vimentin [8]; comparison of derivatives,highest binding affinity
COCCN(CC(=O)N[C@@H](CCCCN)C(=O)N[C@@H](CCSC)C(=O)NCC(=O)NCCCC[C@H](NC(=O)CNC(=O)[C@H](CCSC)NC(=O)[C@H](CCCCN)NC(=O)CN(CCOC)C(=O)CN(Cc1ccc2c(c1)OCO2)C(=O)CN(CC(C)C)C(=O)CN(CCCCN)C(=O)CN(CCCCN)C(=O)CN(CC(C)C)C(=O)CNc1ccc(C(=O)c2ccccc2)cc1)C(N)=O)C(=O)CN(Cc1ccc2c(c1)OCO2)C(=O)CN(CC(C)C)C(=O)CN(CCCCN)C(=O)CN(CCCCN)C(=O)CN(CC(C)C)C(=O)CNc1ccc(C(=O)c2ccccc2)cc1 [L2] (I: H-[N(4-BzPh)Gly][Nleu][Nlys][Nlys][Nleu][Gly(N-piperonyl)][Nme]KMGK-NH2 / II: H-[N(4-BzPh)Gly][Nleu][Nlys][Nlys][Nleu][Gly(N-piperonyl)][Nme]KMG; amide I:11-II:C),IC50,H1299 cells [9],~6 µM
